Entries after “also recorded” stand apart in the source; their conditions may differ.

In the test the test system is p-ERK1/2. The test can be described thus: Immunofluorescence imaging of p-ERK1/2 in scratched HCE monolayer. It is filed as cell-based, Human. The following applies: 80 μM, 45 minutes. How it is done:
Immunofluorescence Imaging. HCE cells were seeded in 8-well chamber slide at 9×10^4 (cells/well) seeding density, and allowed to incubate to form a confluent monolayer. Subsequently, a straight-line scratch mark was made with a sterile P10 pipette tip. The cells were then washed with media to remove cellular debris. Wounded areas were subsequently left untreated or treated with Hst5, SP1 or SP2 at 80 μM concentrations in MEM media with 0.5% FBS for 45 minutes. Cells were then fixed with 4% paraformaldehyde for 30 minutes and permeabilized with 0.1% Triton X-100 for 5 minutes. After washing with PBS, cells were incubated at room temperature for 30 minutes with 5% bovine serum albumin (BSA) and 5% normal goat serum in PBS. Cells were subsequently incubated with primary antibodies diluted in 1% BSA against p-ERK1/2 (1:200) (Cell Signaling, Danver, Mass.) at 4° C. for 16 hours. After three washings with PBS, cells were incubated with fluorescein isothiocyanate-conjugated sheep anti-rabbit IgG antibody (BD Biosciences, San Jose, Calif.) (1:500) diluted in 1% BSA at room temperature for 60 minutes. After extensive washing with PBS, the cells were then stained with 4′,6-diamidino-2-phenylindole (DAPI; (Roche, Mannheim, GE) for 2 minutes for nuclear staining. The cells were mounted in Fluoro gel with Tris buffer (Electron Microscopy Sciences, Hattfield, Pa.) and observed under a confocal microscope (Zeiss LSM 710 Confocal Microscope, Oberkochen, Germany) using a 10× objective.
The level of activation/phosphorylation of ERK with and without wounding and with and without Hst5 application were investigated to determine whether the cellular signaling pathways underpinning the pro-migratory effects of Hst5 were similar to those of Hst1 in other epithelial cell types. Wounding causes an increased in phosphorylated form of ERK1/2 (p-ERK1/2). Immunolocalization was used to determine whether Hst5 application to a scratched sheet of epithelium would affect pERK1/2 levels.

Take DSHAKRHHGYKRKFHEKHHSHRGY [Hst5]: the “pERK1/2 immunolocalization / signal intensity” value is on record as “increased signal intensity of phosphorylated ERK1/2; also recorded: elevated immunolocalization of pERK1/2”.

Values taken from patent publication US20230027620A1, “PENTAPEPTIDE AND METHODS OF USE THEREOF” (THE BOARD OF TRUSTEES OF THE UNIVERSITY OF ILLINOIS, priority 2019, published 2023).
